According to PubChem BioAssay AID1963979 (Molecular Pharmacology Branch, DTP, NCI, 2024):

Tested on: 361931-004-R-J1-PDC multicell spheroid viability
Assay: Anticancer human tumor 361931-004-R-J1-PDC patient-derived colon adenocarcinoma cell line growth inhibition [PI3K]
Conditions: for IC50: curve of first compound; for viability, T/C: stronger effect = lower value
Procedure, shortened: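 Tumor cells grown as multi-cell spheroids with HUVEC endothelial cells and MSC fibroblast-like stroma were treated with targeted agents combined with inavolisib, alpelisib, duvelisib or copanlisib. Doses fell in half-log steps from near clinical Cmax, else from 10 microM. Viability was measured.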

[1] = second compound 0.00316 µM, first compound 0.0316 µM
[2] = second compound 0.00316 µM, first compound 0.1 µM
[3] = second compound 0.00316 µM, first compound 0.316 µM
[4] = second compound 0.00316 µM, first compound 1 µM
[5] = second compound 0.00316 µM, first compound 3.16 µM
[6] = second compound 0.00316 µM, first compound 10 µM
[7] = second compound 0.01 µM, first compound 0.0316 µM
[8] = second compound 0.01 µM, first compound 0.1 µM
[9] = second compound 0.01 µM, first compound 0.316 µM
[10] = second compound 0.01 µM, first compound 1 µM
[11] = second compound 0.01 µM, first compound 3.16 µM
[12] = second compound 0.01 µM, first compound 10 µM
[13] = second compound 0.0316 µM, first compound 0.0316 µM
[14] = second compound 0.0316 µM, first compound 0.1 µM
[15] = second compound 0.0316 µM, first compound 0.316 µM
[16] = second compound 0.0316 µM, first compound 1 µM
[17] = second compound 0.0316 µM, first compound 3.16 µM
[18] = second compound 0.0316 µM, first compound 10 µM
[19] = second compound 0.1 µM, first compound 0.0316 µM
[20] = second compound 0.1 µM, first compound 0.1 µM
[21] = second compound 0.1 µM, first compound 0.316 µM
[22] = second compound 0.1 µM, first compound 1 µM
[23] = second compound 0.1 µM, first compound 3.16 µM
[24] = second compound 0.1 µM, first compound 10 µM
[25] = second compound 0.316 µM, first compound 0.0316 µM
[26] = second compound 0.316 µM, first compound 0.1 µM
[27] = second compound 0.316 µM, first compound 0.316 µM
[28] = second compound 0.316 µM, first compound 1 µM
[29] = second compound 0.316 µM, first compound 3.16 µM
[30] = second compound 0.316 µM, first compound 10 µM
[31] = second compound 1 µM, first compound 0.0316 µM
[32] = second compound 1 µM, first compound 0.1 µM
[33] = second compound 1 µM, first compound 0.316 µM
[34] = second compound 1 µM, first compound 1 µM
[35] = second compound 1 µM, first compound 3.16 µM
[36] = second compound 1 µM, first compound 10 µM
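Also: spheroids exposed to agents for seven days before readout.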

CC1(C)CCC(CN2CCN(c3ccc(C(=O)NS(=O)(=O)c4ccc(NCC5CCOCC5)c([N+](=O)[O-])c4)c(Oc4cnc5[nH]ccc5c4)c3)CC2)=C(c2ccc(Cl)cc2)C1 + COc1c(OCCCN2CCOCC2)ccc2c3n(c(=NC(=O)c4cnc(N)nc4)nc12)CCN3 was tested, and the IC50 (second compound 0.00316 µM) was 5.64 µM, the IC50 (second compound 0.01 µM) was 5.57 µM and the IC50 (second compound 0.0316 µM) was 4.87 µM. It also gave an IC50 (second compound 0.1 µM) of 3.49 µM, an IC50 (second compound 0.316 µM) of 0.555 µM and an IC50 (second compound 1 µM) of less than 0.0316 µM. The viability, T/C [1] was 92.3%, the viability, T/C [2] was 98.1% and the viability, T/C [3] was 108%. For the same compound, the viability, T/C [4] was 104%, the viability, T/C [5] was 95.4% and the viability, T/C [6] was 4.89%. It also gave a viability, T/C [7] of 106%, a viability, T/C [8] of 98.7% and a viability, T/C [9] of 104%. It also gave a viability, T/C [10] of 101%, a viability, T/C [11] of 94.6% and a viability, T/C [12] of 3.83%. The viability, T/C [13] was 96%, the viability, T/C [14] was 94.9% and the viability, T/C [15] was 96.2%. For the same compound, the viability, T/C [16] was 90.4%, the viability, T/C [17] was 78.6% and the viability, T/C [18] was 3.08%. For the same compound, the viability, T/C [19] was 82.5%, the viability, T/C [20] was 76.6% and the viability, T/C [21] was 76.8%. The viability, T/C [22] was 81%, the viability, T/C [23] was 54.5% and the viability, T/C [24] was 1.89%. For the same compound, the viability, T/C [25] was 53%, the viability, T/C [26] was 51.6% and the viability, T/C [27] was 51.4%. The viability, T/C [28] was 48.6%, the viability, T/C [29] was 36.4% and the viability, T/C [30] was 2.15%. For the same compound, the viability, T/C [31] was 25.9%, the viability, T/C [32] was 25.6% and the viability, T/C [33] was 21.4%. The viability, T/C [34] was 25.6%, the viability, T/C [35] was 19.8% and the viability, T/C [36] was 2.71%.

CCCS(=O)(=O)Nc1ccc(F)c(C(=O)c2c[nH]c3ncc(-c4ccc(Cl)cc4)cc23)c1F + COc1c(OCCCN2CCOCC2)ccc2c3n(c(=NC(=O)c4cnc(N)nc4)nc12)CCN3 gave an IC50 (second compound 0.00316 µM) of 4.62 µM, an IC50 (second compound 0.01 µM) of 4.73 µM and an IC50 (second compound 0.0316 µM) of 4.48 µM. For the same compound, the IC50 (second compound 0.1 µM) was 1.57 µM, the IC50 (second compound 0.316 µM) was 0.0487 µM and the IC50 (second compound 1 µM) was less than 0.0316 µM. It also gave a viability, T/C [1] of 102%, a viability, T/C [2] of 104% and a viability, T/C [3] of 93.7%. For the same compound, the viability, T/C [4] was 89.8%, the viability, T/C [5] was 72.3% and the viability, T/C [6] was 7.97%. The viability, T/C [7] was 107%, the viability, T/C [8] was 93.1% and the viability, T/C [9] was 94%. For the same compound, the viability, T/C [10] was 88.1%, the viability, T/C [11] was 75.6% and the viability, T/C [12] was 6.49%. The viability, T/C [13] was 93%, the viability, T/C [14] was 87.3% and the viability, T/C [15] was 77.5%. The viability, T/C [16] was 83.3%, the viability, T/C [17] was 69.4% and the viability, T/C [18] was 6.55%. For the same compound, the viability, T/C [19] was 89.1%, the viability, T/C [20] was 72.5% and the viability, T/C [21] was 67.4%. For the same compound, the viability, T/C [22] was 53%, the viability, T/C [23] was 47.6% and the viability, T/C [24] was 5.33%. It also gave a viability, T/C [25] of 54.1%, a viability, T/C [26] of 45.5% and a viability, T/C [27] of 28.9%. For the same compound, the viability, T/C [28] was 27.4%, the viability, T/C [29] was 17.8% and the viability, T/C [30] was 3.29%. For the same compound, the viability, T/C [31] was 20.6%, the viability, T/C [32] was 21.3% and the viability, T/C [33] was 14%. For the same compound, the viability, T/C [34] was 9.73%, the viability, T/C [35] was 7.59% and the viability, T/C [36] was 2.7%.

In the case of C[C@@H](NC(=O)c1ncnc(N)c1Cl)c1ncc(C(=O)Nc2cc(C(F)(F)F)c(Cl)cn2)s1 + COc1c(OCCCN2CCOCC2)ccc2c3n(c(=NC(=O)c4cnc(N)nc4)nc12)CCN3, the IC50 (second compound 0.00316 µM) is reported as greater than 10 µM, the IC50 (second compound 0.01 µM) is reported as greater than 10 µM and the IC50 (second compound 0.0316 µM) is reported as greater than 10 µM. The IC50 (second compound 0.1 µM) was 5.01 µM, the IC50 (second compound 0.316 µM) was 0.213 µM and the IC50 (second compound 1 µM) was less than 0.0316 µM. It also gave a viability, T/C [1] of 108%, a viability, T/C [2] of 101% and a viability, T/C [3] of 108%. It also gave a viability, T/C [4] of 102%, a viability, T/C [5] of 109% and a viability, T/C [6] of 89.2%. The viability, T/C [7] was 110%, the viability, T/C [8] was 99.9% and the viability, T/C [9] was 105%. For the same compound, the viability, T/C [10] was 98%, the viability, T/C [11] was 98.4% and the viability, T/C [12] was 89%. The viability, T/C [13] was 98.6%, the viability, T/C [14] was 100% and the viability, T/C [15] was 96.6%. For the same compound, the viability, T/C [16] was 87.7%, the viability, T/C [17] was 89.2% and the viability, T/C [18] was 71.2%. The viability, T/C [19] was 85.9%, the viability, T/C [20] was 86.1% and the viability, T/C [21] was 91.1%. The viability, T/C [22] was 71.3%, the viability, T/C [23] was 64.5% and the viability, T/C [24] was 31%. It also gave a viability, T/C [25] of 58%, a viability, T/C [26] of 54.3% and a viability, T/C [27] of 46.5%. It also gave a viability, T/C [28] of 39.9%, a viability, T/C [29] of 25.7% and a viability, T/C [30] of 7.73%. The viability, T/C [31] was 26.1%, the viability, T/C [32] was 25.8% and the viability, T/C [33] was 17.7%. The viability, T/C [34] was 11.8%, the viability, T/C [35] was 8.36% and the viability, T/C [36] was 1.75%.
